From patent US6476047B2, “Anellated dihydropyridines for the treatment of chronic pain” (Boehringer Ingelheim Pharma KG, priority 2000, dated 2002) come the findings set out here.

Each structure is given as a SMILES string. Where a name gives a salt, the structure may show the parent alone.

One may read the IC50 as the concentration that inhibits the measured activity by half. As usually defined, the melting point is the temperature of the solid-liquid transition. As a reminder, the ED50 is the dose at which the effect has come halfway, by size or by number of responders.

In series [1] the target is T1, N-type calcium channels in HEK-293 cell (Homo sapiens, UniProt Q00975).
T1 construct: expressed in transfected cells; host or cells: HEK-293 (clone HEK-293-N26)
As to the kind of experiment: Test A: Calcium imaging, inhibition of N-type calcium channels (FLUO-3, 80 mM K+ depolarisation). It is filed as cell-based. The note with it: FLUO-3 charged recombinant HEK-293 cells, potassium depolarisation (80 mM K+). The source says:
(§1) The concentration of the half-maximum inhibition (IC50-values) for the selected substances is in the submicro- to micromolar range. Independently of this optical method of measurement, the inhibitory effect on the N-type calcium channels was confirmed independently, by an electrophysiological method, using the patch-clamp technique on the same type of cells (Test B).
Inhibition of N-type calcium channels in HEK-293 cell

Series [2] deals with T2, N-type calcium channel in HEK-293-N26 cells (Homo sapiens, UniProt Q00975).
T2 construct: expressed in transfected cells; host or cells: HEK-293 (clone HEK-293-N26)
As to the kind of experiment: Test B: Patch-clamp tests, N-type calcium channel blockade. It is filed as cell-based.
Description: as §1
Test B: Patch-clamp Tests
N-type calcium channel blockade in HEK-293-N26 cells
(Patch clamp records ionic current or voltage across a cell membrane.)

The test system of series [3] is rats. As to the kind of experiment: Test D: Chronic Constriction Injury (CCI, Bennett model), mechanohyperalgesia. It is filed as in vivo. The following applies: po, rat. The source says: Chronic Constriction Injury (CCI, Bennett Model) (Test D)
The principle of the method is producing hyperalgesia and allodynia in the plantar region (the sole of the hind paw). Sprague-Dawley rats (Harlan) weighing 250-350 grams are used.
Under anaesthetic, four loose ligatures are placed on the sciatic nerve of the left hind paw at intervals of 2.5 mm in such a way that the perinerval circulation is affected but not prevented. This leads to extravasation and oedema, resulting in neuropathy of the nerves which innervate the planter region. The right hind paw is treated in the same way without the ligatures. Control tests for allodynia and/or hyperalgesia are carried out without the administration of any substance before and 8-10 days after the operation. Then substance tests are carried out at intervals of 2-3 days. The effects of the substance on the various parameters and ED50 values are calculated (=doses which inhibit by 50% the allodynic or hyperalgesic effects of the stimulation).
Mechano-hyperalgesia (Pin Prick)
The animals are placed in cages with a wire mesh base. Using a blunt needle (e.g. a large safety pin) the skin of the sole of the paw (Plantar-region) is touched so that an indentation is only just produced. Similarly, the sole of the paw is pinched gently with forceps. […] The number and duration of positive reactions of the operated and control paws are measured. […]

In series [4] the test system is rats. Nature of the series: Test C: Formalin paw test. It is filed as in vivo. The note with it: po, rat, p.o., read-out: ED50 values Test C, inhibition of flinching. The protocol: Formalin Paw Test (Test C)
Male rats (Chbb: THOM) weighing 250-300 grams are used. 20 μl of a 2% formaldehyde solution is injected into the plantar region of the right hind paw. Immediately afterwards, the number of flinches (spasms of the affected hind paw) and the time spent licking the affected paw are recorded. After 5 minutes in each case the values are collated into epochs. Time-activity curves for flinches and licking are plotted from the epoch values. Typically, two phases of the formalin activity (flinches, licking) are observed. A first phase of 0-10 minutes and a second phase of 10-60 minutes. Between the two phases the number of flinches and the duration of licking fall towards 0 (interphase). The areas under the curve for the first phase and for the second phase are determined from the timeactivity curves. Usually 5 animals are used in each case for the control, placebo and dose of active substance. The results of the doses of active substance are compared with those of the control and ED50 values are calculated. ED50 is the dose at which the control values are inhibited by 50%.
Test C: Formalin-paw Test (Rat)
Inhibition of flinching (ED50 values in mg/kg; p.o.)

T2 sequence (Q00975 whole entry): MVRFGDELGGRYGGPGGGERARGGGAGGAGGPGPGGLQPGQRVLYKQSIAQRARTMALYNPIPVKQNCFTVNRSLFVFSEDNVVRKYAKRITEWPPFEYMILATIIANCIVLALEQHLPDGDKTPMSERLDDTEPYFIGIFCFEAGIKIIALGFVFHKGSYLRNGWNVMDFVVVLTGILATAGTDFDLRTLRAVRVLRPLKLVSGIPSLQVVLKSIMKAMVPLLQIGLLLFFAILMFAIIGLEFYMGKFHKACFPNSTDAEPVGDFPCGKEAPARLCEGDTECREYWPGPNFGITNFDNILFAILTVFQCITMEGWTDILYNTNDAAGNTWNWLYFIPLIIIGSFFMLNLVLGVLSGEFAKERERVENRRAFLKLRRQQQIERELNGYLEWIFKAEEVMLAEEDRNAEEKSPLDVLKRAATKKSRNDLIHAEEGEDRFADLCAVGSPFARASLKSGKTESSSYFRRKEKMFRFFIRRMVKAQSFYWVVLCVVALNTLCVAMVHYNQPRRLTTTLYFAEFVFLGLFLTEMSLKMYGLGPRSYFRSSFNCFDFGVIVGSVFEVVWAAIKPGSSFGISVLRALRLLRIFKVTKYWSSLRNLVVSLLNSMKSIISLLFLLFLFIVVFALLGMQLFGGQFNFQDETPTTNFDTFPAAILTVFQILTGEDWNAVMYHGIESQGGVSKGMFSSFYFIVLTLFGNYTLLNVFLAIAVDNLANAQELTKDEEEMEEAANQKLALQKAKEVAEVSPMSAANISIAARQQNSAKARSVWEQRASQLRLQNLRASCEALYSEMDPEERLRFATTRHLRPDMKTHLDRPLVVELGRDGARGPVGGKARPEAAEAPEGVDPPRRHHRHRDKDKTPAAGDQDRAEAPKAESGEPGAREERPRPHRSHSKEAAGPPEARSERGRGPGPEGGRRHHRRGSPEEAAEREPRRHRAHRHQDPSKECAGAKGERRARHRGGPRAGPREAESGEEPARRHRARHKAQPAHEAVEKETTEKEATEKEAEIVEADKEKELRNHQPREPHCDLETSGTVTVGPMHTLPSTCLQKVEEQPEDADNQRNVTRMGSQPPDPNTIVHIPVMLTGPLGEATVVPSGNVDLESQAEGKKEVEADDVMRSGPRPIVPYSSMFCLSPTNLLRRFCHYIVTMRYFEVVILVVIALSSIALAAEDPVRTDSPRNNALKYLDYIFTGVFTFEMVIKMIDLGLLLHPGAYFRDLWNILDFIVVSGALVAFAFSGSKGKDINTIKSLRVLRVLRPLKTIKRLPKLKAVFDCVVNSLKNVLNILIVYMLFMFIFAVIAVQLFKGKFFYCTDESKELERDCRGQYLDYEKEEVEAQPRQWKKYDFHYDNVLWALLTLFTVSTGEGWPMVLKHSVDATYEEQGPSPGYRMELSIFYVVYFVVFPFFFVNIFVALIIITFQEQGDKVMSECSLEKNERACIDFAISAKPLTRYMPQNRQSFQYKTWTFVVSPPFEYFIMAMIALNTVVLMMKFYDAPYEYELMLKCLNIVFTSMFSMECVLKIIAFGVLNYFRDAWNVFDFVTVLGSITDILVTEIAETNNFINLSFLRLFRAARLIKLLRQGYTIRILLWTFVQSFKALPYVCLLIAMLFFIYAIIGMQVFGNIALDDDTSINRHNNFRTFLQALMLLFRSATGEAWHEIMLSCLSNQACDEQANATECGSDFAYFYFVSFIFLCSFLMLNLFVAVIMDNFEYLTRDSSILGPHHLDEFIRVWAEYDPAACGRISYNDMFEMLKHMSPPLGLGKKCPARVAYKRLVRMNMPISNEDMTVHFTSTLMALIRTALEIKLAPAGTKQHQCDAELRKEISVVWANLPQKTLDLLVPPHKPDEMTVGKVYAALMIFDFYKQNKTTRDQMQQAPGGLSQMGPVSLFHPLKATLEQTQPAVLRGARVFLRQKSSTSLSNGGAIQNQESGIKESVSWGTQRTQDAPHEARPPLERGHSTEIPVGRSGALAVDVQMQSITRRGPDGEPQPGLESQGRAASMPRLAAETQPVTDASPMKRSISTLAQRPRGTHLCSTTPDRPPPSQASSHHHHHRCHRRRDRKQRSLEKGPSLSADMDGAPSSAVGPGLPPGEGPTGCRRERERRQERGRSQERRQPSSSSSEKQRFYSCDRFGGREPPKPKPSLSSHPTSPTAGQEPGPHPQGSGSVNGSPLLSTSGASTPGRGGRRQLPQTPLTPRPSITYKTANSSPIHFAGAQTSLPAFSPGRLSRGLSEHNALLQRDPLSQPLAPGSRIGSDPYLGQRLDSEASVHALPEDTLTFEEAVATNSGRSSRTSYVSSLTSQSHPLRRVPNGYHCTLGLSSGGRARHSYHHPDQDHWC
T2 sequence (P54289 25-956 partner limits assumed): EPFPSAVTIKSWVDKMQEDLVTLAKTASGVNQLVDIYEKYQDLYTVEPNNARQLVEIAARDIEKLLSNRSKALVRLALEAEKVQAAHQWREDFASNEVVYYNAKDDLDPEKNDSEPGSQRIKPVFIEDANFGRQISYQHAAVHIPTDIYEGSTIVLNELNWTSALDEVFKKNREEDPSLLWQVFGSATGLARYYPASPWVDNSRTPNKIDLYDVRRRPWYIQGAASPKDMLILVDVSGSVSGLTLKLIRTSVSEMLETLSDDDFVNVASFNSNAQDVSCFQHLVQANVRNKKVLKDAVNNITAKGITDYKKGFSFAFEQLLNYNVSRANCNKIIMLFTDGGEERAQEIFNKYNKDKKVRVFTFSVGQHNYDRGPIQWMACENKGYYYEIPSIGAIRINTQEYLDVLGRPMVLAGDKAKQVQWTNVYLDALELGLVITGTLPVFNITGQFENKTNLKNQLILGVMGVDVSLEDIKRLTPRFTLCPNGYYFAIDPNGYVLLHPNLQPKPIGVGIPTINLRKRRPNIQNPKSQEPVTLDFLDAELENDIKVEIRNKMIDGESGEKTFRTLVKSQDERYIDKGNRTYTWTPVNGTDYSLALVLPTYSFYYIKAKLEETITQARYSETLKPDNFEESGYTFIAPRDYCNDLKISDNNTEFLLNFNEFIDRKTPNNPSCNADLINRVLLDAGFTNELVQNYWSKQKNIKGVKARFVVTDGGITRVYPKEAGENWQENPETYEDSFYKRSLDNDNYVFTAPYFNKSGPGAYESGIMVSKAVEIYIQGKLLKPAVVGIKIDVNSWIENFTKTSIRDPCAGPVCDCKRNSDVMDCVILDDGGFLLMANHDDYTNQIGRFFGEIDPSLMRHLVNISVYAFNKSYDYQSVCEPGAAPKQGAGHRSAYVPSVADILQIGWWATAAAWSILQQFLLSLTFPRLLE
T2 sequence (P54289 957-1103 partner limits assumed): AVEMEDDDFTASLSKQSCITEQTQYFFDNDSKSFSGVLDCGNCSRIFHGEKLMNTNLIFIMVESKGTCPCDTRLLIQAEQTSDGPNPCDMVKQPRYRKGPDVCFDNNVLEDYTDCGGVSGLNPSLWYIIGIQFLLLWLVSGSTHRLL
T2 sequence (P54284 whole entry partner): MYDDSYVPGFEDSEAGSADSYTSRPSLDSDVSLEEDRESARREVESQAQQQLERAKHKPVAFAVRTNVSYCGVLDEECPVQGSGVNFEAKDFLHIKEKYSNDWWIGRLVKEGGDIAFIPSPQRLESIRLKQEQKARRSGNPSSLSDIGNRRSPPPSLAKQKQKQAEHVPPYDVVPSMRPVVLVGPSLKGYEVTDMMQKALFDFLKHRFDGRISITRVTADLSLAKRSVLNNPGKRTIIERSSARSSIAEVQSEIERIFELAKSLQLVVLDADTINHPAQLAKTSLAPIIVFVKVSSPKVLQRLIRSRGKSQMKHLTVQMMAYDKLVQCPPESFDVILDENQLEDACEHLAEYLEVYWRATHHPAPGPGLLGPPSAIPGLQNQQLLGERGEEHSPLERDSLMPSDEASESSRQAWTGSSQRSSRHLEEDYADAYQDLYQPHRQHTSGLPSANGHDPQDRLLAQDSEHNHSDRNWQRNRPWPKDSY
T1 sequence (Q00975 whole entry): as the sequence (Q00975 whole entry) above
T1 sequence (P54289 25-956 partner limits assumed): as the sequence (P54289 25-956 partner limits assumed) above
T1 sequence (P54289 957-1103 partner limits assumed): as the sequence (P54289 957-1103 partner limits assumed) above
T1 sequence (P54284 whole entry partner): as the sequence (P54284 whole entry partner) above

`COc1cc2c(cc1OC)C(C)(C)CN=C2c1cccc(Oc2cc(C(F)(F)F)cc(C(F)(F)F)c2)c1` [Example 14]: the 50% inhibitory concentration (IC50) in series [1] amounted to 1610 nM. For `FC(F)(F)c1ccc(Oc2ccc(C3=NCCc4ccccc43)cc2)cc1` [Example 17], in series [2], the IC50 was determined as 8200 nM. Take `COc1cc2c(cc1OC)C(C)(C)CN=C2c1cccc(Oc2cc(C(F)(F)F)cc(C(F)(F)F)c2)c1` (as salt: salt) [Example 14]: the melting point is 210 to 211 °C. `COc1cc2c(cc1OC)C(c1ccc(Oc3ccc(C(F)(F)F)cc3)cc1)=NCC2` [Example 6]: the IC50 was 940 nM in series [1] and 1120 nM in series [2]. As for `COc1cc2c(cc1OC)C(C)(C)CN=C2c1cccc(Oc2ccccc2)c1` [Example 15], the IC50 in series [1] is 1620 nM.

`CCCCCCOc1ccc(C2=NCC(C)(C)c3ccccc32)cc1` [Example 11]: in series [1], the IC50 came to 3260 nM.

Compound `CCCCCCOc1ccc(C2=NCC(C)(C)c3ccccc32)cc1` (as salt: salt) [Example 11] gave a melting point of 186 to 187 °C.

Regarding `COc1cc2c(cc1OC)C(C)(C)CN=C2c1ccc(Oc2cc(C(F)(F)F)cc(C(F)(F)F)c2)cc1` (as salt: salt) [Example 7], the melting point came to 197 °C. As for `COc1cc2c(cc1OC)C(C)(C)CN=C2c1ccc(Oc2ccc(C(F)(F)F)cc2)cc1` [Example 5], the half-inhibitory concentration (IC50) is 820 nM in series [1] and 1330 nM in series [2]. For the same compound, the ED50 worked out at 10 mg/kg in the series with rats [3] and 15 mg/kg in the series with rats [4]. On to `COc1cc2c(cc1OC)C(C)(C)CN=C2c1ccccc1Oc1cc(C(F)(F)F)cc(C(F)(F)F)c1` [Example 8], for which the IC50 in series [1] was found to be 3160 nM; in series [2], 1700 nM.

Regarding `COc1cc2c(cc1OC)C(c1ccc(Oc3ccccc3)cc1)=NCC2` [Example 1], the results for the IC50 in series [1] and in series [2] were 1860 nM and 1800 nM, respectively. The ED50 in the series with rats [4] worked out at 10 mg/kg. As for `CCCCCCOc1ccc(C2=NCCc3cc(OC)c(OC)cc32)cc1` (as salt: salt) [Example 2], the melting point is 172 °C. On to `COc1cc2c(cc1OC)C(C)(C)CN=C2c1ccc(Oc2ccccc2)cc1` [Example 4], for which the melting point was 141 to 142 °C. The IC50 in series [1] is 1830 nM.

In the case of `COc1cc2c(c(OC)c1OC)CCN=C2c1ccc(Oc2ccccc2)cc1` [Example 3], in series [1], the IC50 worked out at 1940 nM. In the case of `CC1(C)CN=C(c2ccc(Oc3cc(C(F)(F)F)cc(C(F)(F)F)c3)cc2)c2ccccc21` (as salt: salt) [Example 16], the melting point was 217 to 218 °C.

As to `CC1(C)CN=C(c2ccc(Oc3cc(C(F)(F)F)cc(C(F)(F)F)c3)cc2)c2ccccc21` [Example 16], the IC50 in series [2] stood at 1220 nM. `COc1cc2c(cc1OC)C(C)(C)CN=C2c1cccc(Oc2ccccc2)c1` (as salt: salt) [Example 15] gave a melting point of 181 °C. Same read-out and setting: with `FC(F)(F)c1ccc(Oc2ccc(C3=NCCc4ccccc43)cc2)cc1` (as salt: salt) [Example 17] the figure was 234 to 235 °C. Consider `CC1(C)CN=C(c2ccccc2Oc2cc(C(F)(F)F)cc(C(F)(F)F)c2)c2ccccc21` [Example 9, 3,4-dihydro-4,4-dimethyl-1-[2-(3,5-ditrifluoromethyl)phenoxy]phenyl-isoquinoline hydrochloride], for which the IC50 stood at 3980 nM in series [1] and 260 nM in series [2]. The ED50 with rats [4] was determined as 10 mg/kg.

On to `COc1cc2c(cc1OC)C(c1ccc(Oc3cc(C(F)(F)F)cc(C(F)(F)F)c3)cc1)=NCC2` [Example 10], for which, in series [1], the IC50 was 1950 nM. `COc1cc2c(c(OC)c1OC)CCN=C2c1ccc(Oc2ccccc2)cc1` (as salt: salt) [Example 3]: the melting point lay in the range of 173 to 175 °C. Consider `CCCCCCOc1ccc(C2=NCCc3cc(OC)c(OC)cc32)cc1` [Example 2], for which the IC50 in series [1] was determined as 1200 nM; in series [2], 1090 nM. In turn, `COc1cc2c(cc1OC)C(C)(C)CN=C2c1ccc(Oc2ccc(C(F)(F)F)cc2)cc1` (as salt: salt) [Example 5] had a melting point of 195 to 198 °C.

Compound `COc1cc2c(cc1OC)C(C)(C)CN=C2c1ccccc1Oc1cc(C(F)(F)F)cc(C(F)(F)F)c1` (as salt: salt) [Example 8] came in with a melting point of 172 to 173 °C. For `COc1ccc2c(c1)C(C)(C)CN=C2c1ccccc1Oc1cc(C(F)(F)F)cc(C(F)(F)F)c1` [Example 12], the IC50 in series [1] came out at 5540 nM; in series [2] it was 1600 nM. Regarding `CC1(C)CN=C(c2ccccc2Oc2cc(C(F)(F)F)cc(C(F)(F)F)c2)c2ccccc21` (as salt: hydrochloride) [Example 9, 3,4-dihydro-4,4-dimethyl-1-[2-(3,5-ditrifluoromethyl)phenoxy]phenyl-isoquinoline hydrochloride], the melting point lay within 211 to 212 °C.

`COc1cc2c(cc1OC)C(c1ccc(Oc3ccc(C(F)(F)F)cc3)cc1)=NCC2` (as salt: salt) [Example 6] yielded a melting point of 218 °C. Same read-out and setting: with `COc1cc2c(cc1OC)C(c1ccc(Oc3ccccc3)cc1)=NCC2` (as salt: salt) [Example 1] the figure was 209 to 210 °C; with `COc1cc2c(cc1OC)C(c1ccc(Oc3cc(C(F)(F)F)cc(C(F)(F)F)c3)cc1)=NCC2` (as salt: salt) [Example 10], 215 °C. `COc1ccc2c(c1)C(C)(C)CN=C2c1ccccc1Oc1cc(C(F)(F)F)cc(C(F)(F)F)c1` (as salt: salt) [Example 12] returned a melting point of 122 to 123 °C. In the case of `COc1cc2c(cc1OC)C(C)(C)CN=C2c1ccc(Oc2cc(C(F)(F)F)cc(C(F)(F)F)c2)cc1` [Example 7], the IC50 in series [1] is 1260 nM; in series [2], 1000 nM.
